These are literature values, as cited in PMC10017685 (Nature Communications, 2023).

The first data set has as its system human erythrocytes. The arrangement: method as in DBAASP. As to conditions: cited from earlier work.
For IAKIAGKIAKIAGKIAKIAGKIAK [DBAASP_14999], the “Class (dedicated toxicity dataset used for toxicity classifier evaluation)” value (shortened to “Class”) was 1.

Regarding GIMSSLMKKLAKIIKK [DBAASP_8903], the “Class” value was 0.

With GIMSSLMKKLKKIIKK [DBAASP_8904], the “Class” value is 0.

As for GILSSWLKKLKKIIAK [DBAASP_8912], the “Class” value is 0.

With GILKSLLKKLKKIIAK [DBAASP_8908], the “Class” value was 0.

Take GILSSLLKKLKKIIAK [DBAASP_8905]: the “Class” value is recorded as 0.

On to GIMSSLMKKLKKIIAK [DBAASP_8901], for which the “Class” value is 0.

For the sequence GILSKLLKKLKKIIAK [DBAASP_8909], the “Class” value was 0.

With GKWKKILGKLIR [DBAASP_3277], the “Class” value is 0.

The same data set, now with this note: toxicity class label 1 or 0, meaning of the labels not given; DBAASP HC50 data, human erythrocytes; ref DBAASP; cited from earlier work.
Turning to RRWCVYAYVRVRGVRVYAYVCW [DBAASP_13506], the “Class” value is given as 0.

On to HFKGTLVNLAKKIL [DBAASP_5016], for which the “Class” value was 0.

In the case of VRRFPWWYPFLRR [DBAASP_14261], the “Class” value was 0.

Take WCRRYRVLVRGVLVRYRRCW [DBAASP_13507]: the “Class” value is on record as 0.

Regarding GIKDLLKGAAKALVKTVLF [DBAASP_11234], the “Class” value is listed as 0.

As to KWFKIQLQIKKWKNKK [DBAASP_8806], the “Class” value is on record as 0.

In the case of CWKWKWKWGSGWKWKWKWC [DBAASP_353], the “Class” value is 0.

Take FLPVIASVAAKVLPKVFCFITKKC [DBAASP_6169]: the “Class” value is recorded as 1.

Consider ALWKSLLKNVGKA [DBAASP_11806], for which the “Class” value is recorded as 0.

Regarding GIMSSLMKKLAAIIAK [DBAASP_8899], the “Class” value is reported as 0.

Turning to RWCRRYRVRVRGVLVYAYVCW [DBAASP_13505], the “Class” value is recorded as 0.

As for MPLSWFFPRTWGKR [DBAASP_9722], the “Class” value is reported as 0.

Turning to “KFKKLFKKLSPVFKRIVQRIKDFLR [DBAASP_13190]”, the “Class” value was 0.

On to NILNTIINLAKKIL [DBAASP_3562], for which the “Class” value is recorded as 0.

In the case of FLPIVGKLLSGLF [DBAASP_1883], the “Class” value is 0.

In the case of FLPIVGRLISGLL [DBAASP_5287], the “Class” value is given as 0.

ILGAILPLVSGLLSNKL [DBAASP_4393]: the “Class” value was 0.

Turning to FLPLILPSIVTALSSFLKQG [DBAASP_8197], the “Class” value is on record as 0.

For LLKKVLKAAA [DBAASP_7357], the “Class” value was 0.

With VKRWKKWFRKWKKWV [DBAASP_16447], the “Class” value is on record as 0.

Regarding GIGKFLHSAKKFGKAFVGEIMNS [DBAASP_5368], the “Class” value is on record as 0.

Turning to VRRFPWYWPFLRR [DBAASP_14260], the “Class” value is 0.

In the case of PFKIDIHLGGY [DBAASP_7635], the “Class” value is recorded as 0.

In the case of FLPIVGRLISGIL [DBAASP_13347], the “Class” value is 0.

For KRIVQRIKDFLR [DBAASP_146], the “Class” value is on record as 0.

On to FLSTALKVAANVVPTLFCKITKKC [DBAASP_1888], for which the “Class” value is given as 0.

In the case of FLPGILKVAANVVPGVI [DBAASP_16463], the “Class” value is recorded as 0.

GLNALKKVFQGFHEAIKLINNHVQ [DBAASP_6935]: the “Class” value was 0.

As to ALLKTMLKKLGTMAL [DBAASP_10104], the “Class” value is recorded as 0.

Consider FLSLIPKIAGGIAALAKHL [DBAASP_10835], for which the “Class” value was 1.

As for FIHHIIGGLFSVGKHIHSLIHGH [DBAASP_12673], the “Class” value is 1.

Consider ITKQITKQLNRQTKIQSK [DBAASP_13427], for which the “Class” value is recorded as 0.

As to VKWRWKWKWRWKWKWKV [DBAASP_8777], the “Class” value was 0.

With GFKRIVQKIRDFLRNLV [DBAASP_11852], the “Class” value was 0.

For FFRLLFHGVHHVGKIKPRA [DBAASP_1429], the “Class” value is 0.

Regarding ALWKTMLKKLGTMA [DBAASP_10092], the “Class” value is on record as 0.

In the case of RAGLQFPVGRVHRLLRK [DBAASP_7651], the “Class” value is reported as 0.

As to FLKWALKVAAK [DBAASP_16466], the “Class” value is given as 0.

Take KIALKALKALKALGKALKAL [DBAASP_11232]: the “Class” value is recorded as 1.

Take FFHHIFRGIVHVGKTIHRLVTG [DBAASP_4867]: the “Class” value is recorded as 1.

KKVLKAAA [DBAASP_7362]: the “Class” value is given as 0.

As to GLLKFIKTLL [DBAASP_3138], the “Class” value is 0.

For GIWKTIKSMGKVFAGAILQNL [DBAASP_704], the “Class” value is 0.

For the sequence GFGSLLGKALRLGANVL [DBAASP_3772], the “Class” value is 0.

Consider ILPILGNLLNGLL [DBAASP_3402], for which the “Class” value is 0.

Consider FPVTWPTKWRKG [DBAASP_9717], for which the “Class” value is recorded as 0.

For the sequence FLPLLASLFSRLF [DBAASP_4935], the “Class” value was 1.

GMATKAGTAFGKAAKAIIGAAL [DBAASP_5720]: the “Class” value is given as 0.

With WLRRIGKGVKIIGGAALDHL [DBAASP_5344], the “Class” value is 0.

On to FLSKIWDGVKSLL [DBAASP_18168], for which the “Class” value is on record as 0.

GLLGPLLKIAAKVGSKLL [DBAASP_4926]: the “Class” value is 0.

As to GLLKRIKALL [DBAASP_3124], the “Class” value is 0.

Take KLLKKAGKLLKKAGKLLKKAG [DBAASP_13728]: the “Class” value was 0.

As for KKLIKKILKIL [DBAASP_5047], the “Class” value is 0.

On to GLLKRIKTLL [DBAASP_7447], for which the “Class” value is recorded as 1.

For the sequence FLPIIGQLLSGLL [DBAASP_4222], the “Class” value was 0.

Turning to FLSAITSILGKFF [DBAASP_13350], the “Class” value is listed as 0.

For WLRRIKAWLRRIKA [DBAASP_7164], the “Class” value is listed as 0.

With GFWGKLWEGVKNAI [DBAASP_3479], the “Class” value is given as 1.

In the case of FLPILAGLAANILPKVFCSITKKC [DBAASP_4221], the “Class” value is on record as 1.

With GIGKFLKKAKKFGKAFVKILKK [DBAASP_763], the “Class” value was 0.

For ILGKLLSTAAGLLKNL [DBAASP_4363], the “Class” value is 0.

Take FLQHIIGALSHFF [DBAASP_10247]: the “Class” value is reported as 0.

With IAKIAGKIAKIAGKIAKIAGKIA [DBAASP_14994], the “Class” value is recorded as 1.

Regarding FLGALLKIGAKVLPSVLCGIFKKC [DBAASP_14203], the “Class” value is listed as 1.

As for LWKIWWKIWRVWKNWR [DBAASP_17523], the “Class” value is 1.

In the case of GLLGPLLKIAAKVGKNLL [DBAASP_4924], the “Class” value is given as 0.

As for RIRIRWIIR [DBAASP_17706], the “Class” value is 0.

In the case of LWGALLGLGSTLLSKL [DBAASP_18167], the “Class” value is recorded as 1.

Turning to FLSLIPHIASGIASLVKNF [DBAASP_12390], the “Class” value was 1.

For FWGALAKGALKLIPSLFSSFSKKD [DBAASP_948], the “Class” value was 1.

In the case of GWKDLLKGAAKALVKTVF [DBAASP_11233], the “Class” value was 0.

Take GLGSVLGKALKIGANLL [DBAASP_3821]: the “Class” value is 0.

On to GLLKRIKILL [DBAASP_3144], for which the “Class” value is reported as 0.

With SAVLRHLRRFLLRKHRKH [DBAASP_7661], the “Class” value is given as 0.

Regarding GWGSIFKHGRHAAKHIGHAAVNHYL [DBAASP_1420], the “Class” value is given as 0.

Regarding GIMSSLMKKLAAHIAK [DBAASP_8893], the “Class” value was 0.

Turning to GIMSSLMKKLKAHIAK [DBAASP_8894], the “Class” value is reported as 0.

Turning to AAKKGCWTVSIPPKPCF [DBAASP_12530], the “Class” value is given as 0.

For the sequence VKKFPWWWPFLKK [DBAASP_5136], the “Class” value is on record as 0.
